The values below come from US12209102B2, “Heterocyclic compounds and uses thereof” (Kumquat Biosciences Inc., priority 2022, dated 2025).

The target of one assay is T1, K-Ras G12S (Homo sapiens, UniProt P01116, G12S).
T1 construct: made in house; host or cells: E. coli BL21 (DE3)
Nature of the assay: HTRF resonance energy transfer assay, K-Ras G12S / SOS1 interaction. In kind it is biochemical. The settings on record: HTRF assay of Example 5; read-out: IC50 against K-Ras G12S. In outline: (§1)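 Buffer about 5 mM HEPES pH 7.4 with ~150 mM NaCl, ~1 mM DTT, 0.05% BSA, 0.0025% (v/v) Igepal. Protein constructs used at molarity matching the IC50 range studied (e.g. ~500 nM). FRET between tagged K-Ras and hSOS1 measured after short incubation.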
(TR-FRET usually uses a lanthanide donor and a delayed reading to cut background.)

The next assay deals with T2, K-Ras G12D (Homo sapiens, UniProt P01116, G12D).
T2 construct: made in house; host or cells: E. coli BL21 (DE3)
Nature of the assay: HTRF resonance energy transfer assay, K-Ras G12D / SOS1 interaction. It is filed as biochemical. The note with it: HTRF assay of Example 5; read-out: IC50 against K-Ras G12D. The essentials:
as §1

The target of a further assay is T3, K-Ras WT (Homo sapiens, UniProt P01116).
T3 construct: made in house; host or cells: E. coli BL21 (DE3)
The assay can be described thus: HTRF resonance energy transfer assay, K-Ras WT / SOS1 interaction. In kind it is biochemical. The settings on record: HTRF assay of Example 5; read-out: IC50 against K-Ras WT. The essentials:
as §1

In a further assay the test system is SW620 cells. Nature of the assay: Ras cellular assay, growth of cells with K-Ras G12V mutation (CellTiter-Glo). It is filed as cell-based. The note with it: Homo sapiens, SW-620; cell growth, Example 9, G12V mutation; read-out: IC50 against SW620 cells. In outline: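 IC50 values came from a four-parameter fit of CellTiter-Glo viability, read roughly 6 days after dosing with e.g. a 10-point threefold dilution series. G12V-mutant SW620 cells (e.g. 800 per well) had been plated the previous day in RPMI-1640/10% heat-inactivated FBS, on tissue culture-treated or ultra-low attachment plates.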
(ATP-based viability assays read luminescence as a measure of living cells.)

For another assay, the target named is T4, K-Ras G12V (Homo sapiens, UniProt P01116, G12V).
T4 construct: made in house; host or cells: E. coli BL21 (DE3)
Nature of the assay: HTRF resonance energy transfer assay, K-Ras G12V / SOS1 interaction. It is filed as biochemical. The settings on record: HTRF assay of Example 5; read-out: IC50 against K-Ras G12V. The essentials:
as §1

The subject of the next assay is A549 cells. The assay can be described thus: Ras cellular assay, growth of cells with K-Ras G12S mutation (CellTiter-Glo). It is filed as cell-based. The settings on record: Homo sapiens, cell growth, Example 9, G12S mutation, read-out: IC50 against A549 cells. As to the method:
For example, this assay can be also used to assess a selective growth inhibition of a mutant Ras protein relative to a wildtype, or relative to a different mutant Ras protein.
A549 (ATCC CCL-185) and LS123 (ATCC CCL-255) cell lines comprise a G12S mutation and can be used to assess Ras cellular signaling in vitro, e.g., in response to the compounds herein. A549 culture medium is prepared with RPMI-1640 and 10% heat-inactivated FBS. LS123 culture medium is prepared with RPMI-1640 and 10% heat-inactivated FBS. A CellTiter-Glo (CTG) luminescent based assay (Promega) is used to assess growth of the cells, as a measurement of the ability of the compounds herein to inhibit Ras signaling in the cells. The cells (e.g., 800 per well) are seeded in their respective culture medium in standard tissue culture-treated 384-well format plates (Falcon #08-772-116) or ultra-low attachment surface 384-well format plates (S-Bio #MS-9384WZ). The day after plating, cells are treated with a dilution series (e.g., a 10 point 3-fold dilution series) of the compounds herein (e.g., approximately 40 μL final volume per well). Cell viability can be monitored (e.g., approximately 6 days later) according to the manufacturer's recommended instructions, where the CellTiter-Glo reagent is added (e.g., approximately 10 μL), vigorously mixed, covered, and placed on a plate shaker (e.g., approximately for 20 min) to ensure sufficient cell lysis prior to assessment of luminescent signal. The IC50 values are determined using the four parameter fit. The resulting IC50 value is a measurement of the ability of the compounds herein to reduce cell growth of Ras-driven cells (e.g., tumor cell lines) in vitro and/or in vivo.

Each structure is given as a SMILES string.

T1 sequence (P01116 1-188 isoform P01116-2 G12S): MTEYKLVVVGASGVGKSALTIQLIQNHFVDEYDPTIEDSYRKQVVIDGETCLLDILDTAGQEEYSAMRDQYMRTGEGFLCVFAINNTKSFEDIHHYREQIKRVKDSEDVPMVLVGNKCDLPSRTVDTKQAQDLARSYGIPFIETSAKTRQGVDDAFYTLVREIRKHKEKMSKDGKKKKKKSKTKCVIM
T3 sequence (P01116 1-188 isoform P01116-2): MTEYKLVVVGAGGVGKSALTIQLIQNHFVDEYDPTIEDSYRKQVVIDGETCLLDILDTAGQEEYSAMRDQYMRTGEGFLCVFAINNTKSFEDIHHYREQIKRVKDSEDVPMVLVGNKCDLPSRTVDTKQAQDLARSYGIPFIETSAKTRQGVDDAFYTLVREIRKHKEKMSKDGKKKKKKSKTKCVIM
T2 sequence (P01116 1-188 isoform P01116-2 G12D): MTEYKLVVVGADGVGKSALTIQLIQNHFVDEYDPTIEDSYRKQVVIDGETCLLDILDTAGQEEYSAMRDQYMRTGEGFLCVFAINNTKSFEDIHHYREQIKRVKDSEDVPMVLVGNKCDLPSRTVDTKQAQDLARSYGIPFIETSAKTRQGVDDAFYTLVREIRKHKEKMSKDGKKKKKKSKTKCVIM
T4 sequence (P01116 1-188 isoform P01116-2 G12V): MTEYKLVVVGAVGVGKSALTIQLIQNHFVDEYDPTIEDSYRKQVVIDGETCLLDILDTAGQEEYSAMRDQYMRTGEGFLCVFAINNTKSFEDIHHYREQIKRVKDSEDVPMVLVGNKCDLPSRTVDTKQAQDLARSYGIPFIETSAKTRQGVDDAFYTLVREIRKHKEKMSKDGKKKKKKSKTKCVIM

What is called IC50 is the point on the concentration scale where inhibition reaches its midpoint. As for `N#Cc1c(N)sc2c(F)ccc(-c3c(Cl)c4c5c(nc(OC[C@@]67CCCN6C[C@H](F)C7)nc5c3F)N(C3CCCOCC3)CCO4)c12` (stereo partly drawn) [Compound 638, 2-amino-4-(8-chloro-10-fluoro-2-(((2R,7aS)-2-fluorotetrahydro-1H-pyrrolizin-7a(5H)-yl)methoxy)-4-(oxepan-4-yl)-5,6-dihydro-4H-[1,4]oxazepino[5,6,7-de]quinazolin-9-yl)-7-fluorobenzo[b]thiophene-3-carbonitrile], the IC50 at K-Ras G12S is less than 100 nM; at K-Ras G12D it was less than 100 nM; on K-Ras WT, less than 100 nM; with SW620 cells it was less than 5000 nM; on K-Ras G12V, less than 100 nM; with A549 cells it was less than 5000 nM.
For `N#Cc1c(N)sc2c(F)ccc(-c3c(Cl)c4c5c(nc(OC[C@@]67CCCN6C[C@H](F)C7)nc5c3F)N(C3CCCC3)CCO4)c12` [Compound 639, 2-amino-4-(8-chloro-4-cyclopentyl-10-fluoro-2-(((2R,7aS)-2-fluorotetrahydro-1H-pyrrolizin-7a(5H)-yl)methoxy)-5,6-dihydro-4H-[1,4]oxazepino[5,6,7-de]quinazolin-9-yl)-7-fluorobenzo[b]thiophene-3-carbonitrile], the IC50 on K-Ras G12S is less than 100 nM; at K-Ras G12D it was less than 100 nM; on K-Ras WT, less than 100 nM; in the assay with SW620 cells, less than 5000 nM; on K-Ras G12V, less than 100 nM; with A549 cells, less than 5000 nM.
Turning to `N#Cc1c(N)sc2c(F)ccc(-c3c(Cl)c4c5c(nc(OC[C@@]67CCCN6C[C@H](F)C7)nc5c3F)N(C3CCCN(C(=O)[C@@H]5N[C@H]5C5CC5)C3)CCO4)c12` (stereo partly drawn) [Compound 643, 2-amino-4-(8-chloro-4-(1-((2R,3S)-3-cyclopropylaziridine-2-carbonyl)piperidin-3-yl)-10-fluoro-2-(((2R,7aS)-2-fluorotetrahydro-1H-pyrrolizin-7a(5H)-yl)methoxy)-5,6-dihydro-4H-[1,4]oxazepino[5,6,7-de]quinazolin-9-yl)-7-fluorobenzo[b]thiophene-3-carbonitrile], the IC50 is less than 100 nM at K-Ras G12S; less than 100 nM at K-Ras G12D; less than 100 nM on K-Ras WT; less than 5000 nM in the assay with SW620 cells; less than 100 nM on K-Ras G12V; less than 5000 nM in the assay on A549 cells.
As for `CC(O)C1C(C)Oc2c(Cl)c(-c3ccc(F)c4sc(N)c(C#N)c34)c(F)c3nc(OC[C@@]45CCCN4C[C@H](F)C5)nc(c23)N1CC(F)F` (stereo partly drawn) [Compound 646, 2-amino-4-(8-chloro-4-(2,2-difluoroethyl)-10-fluoro-2-(((2R,7aS)-2-fluorotetrahydro-1H-pyrrolizin-7a(5H)-yl)methoxy)-5-(1-hydroxyethyl)-6-methyl-5,6-dihydro-4H-[1,4]oxazepino[5,6,7-de]quinazolin-9-yl)-7-fluorobenzo[b]thiophene-3-carbonitrile], the IC50 at K-Ras G12S was less than 100 nM; at K-Ras G12D it was less than 100 nM; at K-Ras WT, less than 100 nM; in the assay on SW620 cells, less than 5000 nM; on K-Ras G12V it was less than 100 nM; in the assay on A549 cells, less than 5000 nM.
Regarding `CC1Oc2c(Cl)c(-c3ccc(F)c4sc(N)c(C#N)c34)c(F)c3nc(OC[C@@]45CCCN4C[C@H](F)C5)nc(c23)N(CC(F)F)C1C(C)(C)O` (stereo partly drawn) [Compound 655, 2-amino-4-(8-chloro-4-(2,2-difluoroethyl)-10-fluoro-2-(((2R,7aS)-2-fluorotetrahydro-1H-pyrrolizin-7a(5H)-yl)methoxy)-5-(2-hydroxypropan-2-yl)-6-methyl-5,6-dihydro-4H-[1,4]oxazepino[5,6,7-de]quinazolin-9-yl)-7-fluorobenzo[b]thiophene-3-carbonitrile], the IC50 on K-Ras G12S is less than 100 nM; at K-Ras G12D, less than 100 nM; on K-Ras WT, less than 100 nM; with SW620 cells, less than 5000 nM; at K-Ras G12V, less than 100 nM; in the assay on A549 cells, less than 5000 nM.
